In patent US20250129095A1, “ANNULATED 2-AMINO-3-CYANO THIOPHENES AND DERIVATIVES FOR THE TREATMENT OF CANCER” (Boehringer Ingelheim Int'l GmbH Corp., priority 2021, published 2025):

Columns and labels:
KRAS (WT)::SOS1 = target: T1, KRAS (WT)::SOS1 (Homo sapiens, UniProt P01116, C118S); assay: KRAS::SOS1 AlphaScreen binding assay, KRAS WT
T1 construct: KRAS (WT) 1-169, N-terminal 6His-tag for purification, cleaved off; 6His-tag (N, cleaved yes); TEV cleavage site; made in house
Description: This assay can be used to examine the potency with which compounds according to the invention binding to (mutated) KRAS inhibit the protein-protein interaction between SOS1 and (mutated) KRAS e.g., KRAS WT, KRAS G12C, KRAS G12D, KRAS G12V, KRAS G13D. […] Low IC50 values in this assay setting are indicative of strong inhibition of protein-protein interaction between SOS1 and KRAS:
These assays measure the inhibitory effect of compounds on KRAS mutant protein-protein interactions using the Alpha Screen technology by Perkin Elmer
The following (mutant) enzyme forms of KRAS and interacting proteins are used in these assays at the given concentrations: • KRAS (G12D) 1-169, N-terminal 6His-tag, C-terminal avi-tag (Xtal BioStructures, Inc.); final assay concentration 10 nM and SOS1 564-1049, N-terminal 229 GST-tag, TEV cleavage site (Viva Biotech Ltd); final assay concentration 5 nM; • KRAS (G12C) 1-169, N-terminal 6His-tag for purification, cleaved off, C-terminal avi-tag, biotinylated, mutations: C51S, C80L, C118S (in house); final assay concentration 7.5 nM and SOS1 564-1049, N-terminal 229 GST-tag, TEV cleavage site (Viva Biotech Ltd); final assay concentration 5 nM; • KRAS (G12V) 1-169, N-terminal 6His-tag for purification, cleaved off, C-terminal avi-tag, biotinylated, TEV cleavage site, mutation: C118S, GDP loaded (in house); final assay concentration 10 nM and SOS1 564-1049, N-terminal 229 GST-tag, TEV cleavage site (Viva Biotech Ltd); final assay concentration 10 nM; • KRAS (G13D) 1-169, N-terminal 6His-tag for purification, cleaved off, C-terminal avi-tag, biotinylated, TEV cleavage site, mutation: C118S, GDP loaded (in house); final assay concentration 10 nM and SOS1 564-1049, N-terminal 229 GST-tag, TEV cleavage site (Viva Biotech Ltd); final assay concentration 10 nM; • KRAS (WT) 1-169, N-terminal 6His-tag for purification, cleaved off, C-terminal avi-tag, biotinylated, TEV cleavage site, mutation: C118S, GDP loaded (in house); final assay concentration 10 nM and SOS1 564-1049, N-terminal 229 GST-tag, TEV cleavage site (Viva Biotech Ltd); final assay concentration 10 nM.
Test compounds dissolved in DMSO are dispensed onto assay plates (Proxiplate 384 PLUS, white, PerkinElmer; 6008289) using an Access Labcyte Workstation with the Labcyte Echo 55×. For the chosen highest assay concentration of 100 μM, 150 nL of compound solution are transferred from a 10 mM DMSO compound stock solution. A series of eleven fivefold dilutions per compound are transferred to the assay plate, compound dilutions are tested in duplicates. DMSO are added as backfill to a total volume of 150 nL.
The assays run on a fully automated robotic system in a darkened room below 100 Lux. To 150 nl of compound dilution 10 μl of a mix including KRAS mutant protein, SOS1 (final assay concentrations see above) and GDP nucleotide (Sigma G7127; final assay concentration 10 μM) in assay buffer (1×PBS, 0.1% BSA, 0.05% Tween 20) are added into columns 1-24.
After 30 minutes incubation time 5 μl of Alpha Screen bead mix in assay buffer are added into columns 1-23. Bead mix consists of AlphaLISA Glutathione Acceptor Beads (PerkinElmer, Cat No AL109) and AlphaScreen Streptavidin Donor Beads (PerkinElmer Cat No 6760002) in assay buffer at a final assay concentration of 10 μg/ml each.
Plates are kept at room temperature in a darkened incubator. After an additional 60 minutes incubation time the signal is measured in a PerkinElmer Envision HTS Multilabel Reader using the AlphaScreen specs from PerkinElmer.
Each plate contains up to 16 wells of a negative control depending on the dilution procedure (platewise or serial) (DMSO instead of test compound; with KRAS mutant::SOS1 GDP mix and bead mix; column 23) and 16wells of a positive control (DMSO instead of test compound; with KRAS mutant::SOS1 GDP mix w/o bead mix; column 24).
As internal control known inhibitors of KRAS mutant::SOS1 interaction can be measured on each compound plate. […]

GP2D cells = assay: GP2D proliferation assay (120 h) (colorectal cancer, G12D); assay type: cell-based
Procedure: GP2D cells (ATCC No. CRL-5807) are dispensed into white 384-well plates, flat and white bottom (Perkin Elmer, 6007680) at a density of 500 cells per well in 40 μl DMEM (Sigma, D6429)+1× GlutaMAX (Gibco, 35050038)+10% FCS (fetal calf serum). […] Compounds (10 mM stock in DMSO) are added at logarithmic dose series using the HP Digital Dispenser D300 (Tecan), including DMSO controls and normalizing for added DMSO. For the TO time point measurement, untreated cells are analyzed at the time of compound addition. Plates are incubated for 120 h, and cell viability is measured using CellTiter-Glo luminescent cell viability reagent (Promega product code G7570). Viability (stated as percent of control) is defined as relative luminescence units RLU of each well divided by the RLU of cells in DMSO controls.

CYP3A4 = target: T2, CYP3A4 (Homo sapiens, UniProt P08684); assay: Mechanism based inhibition of CYP3A4 assay (MBI 3A4); assay type: in vitro ADME; conditions: human liver microsomes, 25 uM, hydroxy-midazolam formation 30 min vs 0 min preincubation
T2 construct: from tissue; host or cells: human liver microsomes
Procedure: The time dependent inhibition towards CYP3A4 is assayed in human liver microsomes (0.02 mg/mL) with midazolam (15 μM) as a substrate. The test compounds and water control (wells w/o test compound) are preincubated in presence of NADPH (1 mM) with human liver microsomes (0.2 mg/mL) at a concentration of 25 uM for 0 min and 30 min. After preincubation, the incubate is diluted 1:10 and the substrate midazolam is added for the main incubation (15 min). The main incubation is quenched with acetonitrile and the formation of hydroxy-midazolam is quantified via LC/MS-MS. The formation of hydroxy-midazolam from the 30 min preincubation relative to the formation from the 0 min preincubation is used as a readout. Values of less than 100% mean that the substrate midazolam is metabolized to a lower extent upon 30 min preincubation compared to 0 min preincubation. In general low effects upon 30 min preincubation are desired (corresponding to values close to 100%/not different to the values determined with water control).

T1 sequence (P01116 1-169 isoform P01116-2 C118S): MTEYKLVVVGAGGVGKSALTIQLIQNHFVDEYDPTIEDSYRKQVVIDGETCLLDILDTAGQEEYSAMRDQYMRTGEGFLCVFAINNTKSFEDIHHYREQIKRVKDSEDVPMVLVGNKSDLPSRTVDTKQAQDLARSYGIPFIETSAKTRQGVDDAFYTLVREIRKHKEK
T2 sequence (P08684 whole entry): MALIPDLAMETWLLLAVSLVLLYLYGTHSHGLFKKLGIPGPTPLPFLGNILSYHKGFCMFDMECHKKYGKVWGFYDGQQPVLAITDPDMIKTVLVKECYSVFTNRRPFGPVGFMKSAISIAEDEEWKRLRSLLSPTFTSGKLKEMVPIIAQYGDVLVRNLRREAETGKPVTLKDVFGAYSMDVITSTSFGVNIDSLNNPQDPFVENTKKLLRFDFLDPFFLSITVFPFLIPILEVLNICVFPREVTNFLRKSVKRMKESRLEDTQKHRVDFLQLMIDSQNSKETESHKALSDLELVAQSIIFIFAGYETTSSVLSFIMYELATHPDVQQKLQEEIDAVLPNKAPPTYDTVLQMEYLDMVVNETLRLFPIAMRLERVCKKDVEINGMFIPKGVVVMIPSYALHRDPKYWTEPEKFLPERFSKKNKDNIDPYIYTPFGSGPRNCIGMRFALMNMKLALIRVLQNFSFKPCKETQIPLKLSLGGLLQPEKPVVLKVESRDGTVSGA

Row | Structure (SMILES) | IC50 (KRAS (WT)::SOS1) | IC50 (GP2D cells) | MBI 3A4 [%] (CYP3A4)
1 | C[C@H](Oc1cc(Oc2nccs2)nc(-c2onc3c2CCC[C@@]32CCCc3sc(N)c(C#N)c32)n1)[C@@H]1CCCN1C [Example I-1] | 4 nM |  | 
2 | C[C@H](Oc1cc(Oc2cccnc2)nc(-c2onc3c2CCC[C@@]32CCCc3sc(N)c(C#N)c32)n1)[C@@H]1CCCN1C [Example I-2] | 4 nM |  | 
3 | C[C@H](Oc1cc(Oc2cncnc2)nc(-c2onc3c2CCC[C@@]32CCCc3sc(N)c(C#N)c32)n1)[C@@H]1CCCN1C [Example I-3] | 2 nM | 12 nM | 
4 | COC[C@H](C)Nc1cc(O[C@@H](C)[C@@H]2CCCN2C)nc(-c2onc3c2CCC[C@@]32CCCc3sc(N)c(C#N)c32)n1 [Example I-5] |  |  | 61%
5 | C[C@H](Oc1cc(OCC2(N(C)C)COC2)nc(-c2onc3c2CCC[C@@]32CCCc3sc(N)c(C#N)c32)n1)[C@@H]1CCCN1C [Example I-8] |  | 11 nM | 77%
6 | C[C@H](Oc1cc(Oc2cncnc2)nc(-c2noc3c2CCC[C@@]32CCCc3sc(N)c(C#N)c32)n1)[C@@H]1CCCN1C [II-1] | 3 nM | 10 nM | 
7 | C[C@H](Oc1cc(Oc2nccs2)nc(-c2noc3c2CCC[C@@]32CCCc3sc(N)c(C#N)c32)n1)[C@@H]1CCCN1C [II-2] |  |  | 40%
8 | C[C@H](Oc1cc(O[C@H]2CCOC2)nc(-c2noc3c2CCC[C@@]32CCCc3sc(N)c(C#N)c32)n1)[C@@H]1CCCN1C [II-4] |  | 178 nM | 58%
9 | COCCOc1cc(O[C@@H](C)[C@@H]2CCCN2C)nc(-c2noc3c2CCC[C@@]32CCCc3sc(N)c(C#N)c32)n1 [II-5] |  |  | 69%
10 | C[C@H](Oc1cc(OCCO)nc(-c2noc3c2CCC[C@@]32CCCc3sc(N)c(C#N)c32)n1)[C@@H]1CCCN1C [II-6] |  |  | 61%
11 | C[C@H](Oc1cc(O[C@@H]2CNC2(C)C)nc(-c2noc3c2CCC[C@@]32CCCc3sc(N)c(C#N)c32)n1)[C@@H]1CCCN1C [II-9] | 2 nM |  | 72%
12 | C[C@H](Oc1cc(Nc2ncco2)nc(-c2noc3c2CCC[C@@]32CCCc3sc(N)c(C#N)c32)n1)[C@@H]1CCCN1C [II-13] | 7 nM |  | 52%
13 | C[C@H](Oc1cc(Nc2cnccn2)nc(-c2noc3c2CCC[C@@]32CCCc3sc(N)c(C#N)c32)n1)[C@@H]1CCCN1C [II-14] | 10 nM |  | 67%
14 | C[C@H](Oc1cc(Nc2ccncn2)nc(-c2noc3c2CCC[C@@]32CCCc3sc(N)c(C#N)c32)n1)[C@@H]1CCCN1C [II-15] |  |  | 64%
15 | C[C@H](Oc1cc(Nc2ccccn2)nc(-c2noc3c2CCC[C@@]32CCCc3sc(N)c(C#N)c32)n1)[C@@H]1CCCN1C [II-16] |  |  | 48%
16 | C[C@H](Oc1cc(Nc2ncccn2)nc(-c2noc3c2CCC[C@@]32CCCc3sc(N)c(C#N)c32)n1)[C@@H]1CCCN1C [II-17] | 8 nM | 363 nM | 75%
17 | C[C@H](Oc1cc(Nc2cccnn2)nc(-c2noc3c2CCC[C@@]32CCCc3sc(N)c(C#N)c32)n1)[C@@H]1CCCN1C [II-18] |  |  | 64%
18 | C[C@H](Oc1cc(OCC2(N(C)C)CC2)nc(-c2noc3c2CCC[C@@]32CCCc3sc(N)c(C#N)c32)n1)[C@@H]1CCCN1C [II-21] |  | 8 nM | 76%
19 | C[C@H](Oc1cc(OCC2(N(C)C)COC2)nc(-c2noc3c2CCC[C@@]32CCCc3sc(N)c(C#N)c32)n1)[C@@H]1CCCN1C [II-22] | 2 nM | 5 nM | 78%
20 | COc1c(OCC2(N(C)C)COC2)nc(-c2noc3c2CCC[C@@]32CCCc3sc(N)c(C#N)c32)nc1O[C@@H](C)[C@@H]1CCCN1C [II-25] | 4 nM | 17 nM | 69%
21 | C[C@H]1CN(C)CCCN1c1cc(O[C@@H]2CNC2(C)C)nc(-c2noc3c2CCC[C@@]32CCCc3sc(N)c(C#N)c32)n1 [II-28] | 10 nM | 20 nM | 65%
22 | C[C@H](Oc1cc(O[C@@H]2CNC[C@@H]2F)nc(-c2noc3c2CCC[C@@]32CCCc3sc(N)c(C#N)c32)n1)[C@@H]1CCCN1C [II-29] | 4 nM | 9 nM | 
23 | CO[C@@H]1C[C@@H]([C@H](C)Oc2cc(O[C@@H]3CNC3(C)C)nc(-c3noc4c3CCC[C@@]43CCCc4sc(N)c(C#N)c43)n2)N(C)C1 [II-30] | 2 nM |  | 
24 | C[C@H](Oc1cc(O[C@@H]2CNC2(C)C)nc(-c2noc3c2CCC[C@@]32CCCc3sc(N)c(C#N)c32)n1)[C@@H]1C[C@@H](F)CN1C [II-31] | 2 nM | 1 nM | 
